Measured values: BindingDB's records for patent US20260069571 (Redx Pharma, 2026)

Assays:
[1] = target: Epithelial discoidin domain-containing receptor 1 (Homo sapiens, UniProt Q08345); assay: DDR1 and DDR2 Biochemical Assay
Experimental: (§1) The capacity of compounds to bind to DDR1 and DDR2 was quantified using a LanthaScreen Eu Kinase Binding Assay. Recombinant human DDR1 (2.5 nM; aa440-876 containing a GST tag) and DDR2 (1.75 nM; aa427-855 containing a GST tag) were diluted in assay buffer (50 mM HEPES pH7.3, 10 mM MgCl2, 1 mM EGTA and 0.01% Tween) with various concentrations of compound in a 384-well plate and a volume of 5 uL. After a 30-minute incubation at room temperature, 2.5 uL of Eu-anti GST antibody (diluted to 1 nM in assay buffer) plus Kinase Tracer 178 (diluted in assay buffer to 5 nM for DDR1 and 10 nM for DDR2) were added to the plate. Following 60-minute incubation at room temperature, time-resolved fluorescence was measured on a BMG Labtech PHERAstar plate reader. DMSO (1%) and reference compound (1 μM) were used to generate the Max and Min assay signals, respectively. Data was analysed using a four-parameter logistic model to calculate IC50 values, with at least two independent replicates were performed for each compound.

[2] = target: T1, Discoidin domain-containing receptor 2 (Homo sapiens, UniProt Q16832); assay: DDR1 and DDR2 Biochemical Assay
T1 sequence (Q16832 whole entry): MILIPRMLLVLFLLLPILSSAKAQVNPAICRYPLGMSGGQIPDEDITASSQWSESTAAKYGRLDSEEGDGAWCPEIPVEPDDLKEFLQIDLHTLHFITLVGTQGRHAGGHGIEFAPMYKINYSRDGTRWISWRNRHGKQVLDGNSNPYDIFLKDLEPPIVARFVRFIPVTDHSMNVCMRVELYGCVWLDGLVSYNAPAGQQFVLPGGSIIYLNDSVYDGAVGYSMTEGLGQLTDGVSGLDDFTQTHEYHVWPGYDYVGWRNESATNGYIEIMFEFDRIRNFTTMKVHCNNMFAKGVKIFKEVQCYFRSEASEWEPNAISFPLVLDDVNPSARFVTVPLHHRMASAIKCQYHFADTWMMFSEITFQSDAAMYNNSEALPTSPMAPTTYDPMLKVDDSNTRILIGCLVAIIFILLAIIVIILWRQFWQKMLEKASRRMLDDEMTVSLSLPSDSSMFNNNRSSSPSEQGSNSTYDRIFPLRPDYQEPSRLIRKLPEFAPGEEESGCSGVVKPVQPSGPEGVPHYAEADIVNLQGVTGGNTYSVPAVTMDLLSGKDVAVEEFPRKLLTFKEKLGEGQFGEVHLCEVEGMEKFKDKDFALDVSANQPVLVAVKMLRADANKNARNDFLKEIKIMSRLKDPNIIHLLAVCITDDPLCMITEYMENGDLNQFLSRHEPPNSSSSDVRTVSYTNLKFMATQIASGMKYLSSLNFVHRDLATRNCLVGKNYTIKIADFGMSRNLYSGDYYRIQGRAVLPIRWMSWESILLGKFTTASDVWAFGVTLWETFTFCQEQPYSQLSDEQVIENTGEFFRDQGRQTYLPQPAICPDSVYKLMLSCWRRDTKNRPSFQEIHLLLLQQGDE
Experimental: as §1

Sequence of Epithelial discoidin domain-containing receptor 1 (Q08345 whole entry, the tested form may be a part): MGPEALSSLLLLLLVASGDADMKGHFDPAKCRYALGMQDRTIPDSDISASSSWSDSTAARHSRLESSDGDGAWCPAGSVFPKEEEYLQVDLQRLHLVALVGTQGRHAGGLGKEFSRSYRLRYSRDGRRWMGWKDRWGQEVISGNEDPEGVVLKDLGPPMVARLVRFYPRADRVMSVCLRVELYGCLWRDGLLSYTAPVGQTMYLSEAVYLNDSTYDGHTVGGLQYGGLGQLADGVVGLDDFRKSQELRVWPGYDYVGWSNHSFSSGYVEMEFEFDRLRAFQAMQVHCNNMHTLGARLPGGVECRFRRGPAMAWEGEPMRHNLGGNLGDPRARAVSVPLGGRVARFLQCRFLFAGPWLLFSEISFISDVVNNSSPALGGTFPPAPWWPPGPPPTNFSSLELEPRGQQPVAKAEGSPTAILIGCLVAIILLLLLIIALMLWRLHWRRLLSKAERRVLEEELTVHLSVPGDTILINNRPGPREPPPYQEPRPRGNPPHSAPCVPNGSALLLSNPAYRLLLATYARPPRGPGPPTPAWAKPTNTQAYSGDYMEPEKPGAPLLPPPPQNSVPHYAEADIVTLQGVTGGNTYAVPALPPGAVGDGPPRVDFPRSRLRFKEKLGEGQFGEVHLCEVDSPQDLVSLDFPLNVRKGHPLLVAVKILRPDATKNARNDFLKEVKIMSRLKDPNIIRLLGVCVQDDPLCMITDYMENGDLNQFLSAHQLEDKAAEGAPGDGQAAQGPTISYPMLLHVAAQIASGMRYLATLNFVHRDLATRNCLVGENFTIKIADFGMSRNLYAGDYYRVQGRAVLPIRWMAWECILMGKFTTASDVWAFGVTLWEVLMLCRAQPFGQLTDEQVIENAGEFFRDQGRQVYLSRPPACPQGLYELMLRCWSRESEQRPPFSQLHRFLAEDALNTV

Row | IC50 [1] [nM] | IC50 [2] [nM] | SMILES
1 | < 10 |  | Cn1ncc2cc(Nc3cccc4c3C(=O)N(CC(=O)N3CCCC(C(F)(F)F)C3)C4)ccc21 (stereo not drawn) [US20260069571, Example 12]
2 | < 10 | < 10 | Cc1n[nH]c2cc(Nc3cccc4c3C(=O)N(CC(=O)NCC(F)(F)F)C4)ccc12 [US20260069571, Example 6]
